“And” between values parts separate entries of the source, which are not always exact repeats. Equal entries are not always repeated. Where two headings read alike, the source gives them in different places. Marks after values point to notes of the source that are not given here.
Experiments:
[1] = test system: methanogenesis in rumen liquor; test: In vitro test for methane production (modified Hohenheim Forage value Test); format: cell-based; conditions: for inhibition at 0.05 % / inhibition at 0.1 % / inhibition at 0.5 % / inhibition at 2 % / inhibition at 0.01 % / inhibition at 1 % / inhibition at 0.005 %: read-out: effect on methanogenesis (%)
protozoa (18S rRNA) = format: in vivo, sheep
[2] = test system: total bacteria (16S rRNA); format: in vivo, sheep
[3] = test system: methanogenic archaea (mcrA gene); format: in vivo, sheep
[4] = test system: methane production of dairy cows; parameters: species or system Holstein X Friesian dairy cows; conditions: in vivo
[5] = test system: volatile fatty acid profile and ammonia N concentration in the rumen; format: in vivo, sheep
[6] = test system: methane emissions by sheep; format: in vivo
[7] = 8 h, comparative example, 0.1% DM, average of two experiments
[8] = rumen of sheep, 100 mg per animal and day
[9] = rumen of sheep, 18S rRNA qPCR, 100 mg per animal and day
[10] = rumen of sheep, 16S rRNA qPCR, 100 mg per animal and day
[11] = rumen of sheep, mcrA gene qPCR, 100 mg per animal and day
[12] = rumen of sheep, samples of days 29 and 30, 100 mg per animal and day
[13] = sheep, 100 mg per animal and day via ruminal cannula, day 14
[14] = sheep, 100 mg per animal and day via ruminal cannula, day 29
[15] = sheep, 100 mg per animal and day via ruminal cannula, day 30
[16] = sheep, 100 mg per animal and day via ruminal cannula, days 29-30 pooled

Work on `CCNS(=O)(=O)CCCO[N+](=O)[O-]` [Compound 4, N-Ethyl-3-nitrooxy-propionic sulfonyl amide] yielded an inhibition at 0.05 % ([1]; 8 h) of 10%, an inhibition at 0.1 % ([1]; 8 h) of 24% and an inhibition at 0.5 % ([1]; 8 h) of 99%. For the same compound, the inhibition at 2 % ([1]; 8 h) was 99%.

With `CCCCCC(=O)OCCCO[N+](=O)[O-]` [Compound 12, 3-Nitrooxy-propyl hexanoate] the inhibition at 0.01 % ([1]; 8 h) was 42%, the inhibition at 0.1 % ([1]; 8 h) was 99% and the inhibition at 1 % ([1]; 8 h) was 98%.

`O=[N+]([O-])OCC(CCc1ccccc1)O[N+](=O)[O-]` (racemic) [Compound 2, rac-4-Phenylbutane-1,2-diyl dinitrate] showed an inhibition at 0.5 % ([1]; 8 h) of 4% and an inhibition at 2 % ([1]; 8 h) of 10%.

In the case of `O=[N+]([O-])CCCO` [reference compound], the inhibition at 0.1 % [1, 7] is reported as 2%.

With `O=[N+]([O-])OCc1ccccc1` [Compound 14, Benzylnitrate] the inhibition at 0.05 % ([1]; 8 h) was 3%, the inhibition at 0.1 % ([1]; 8 h) was 37% and the inhibition at 0.5 % ([1]; 8 h) was 100%. For the same compound, the inhibition at 2 % ([1]; 8 h) was 100%.

For `O=[N+]([O-])[O-].[Na+]` [Na NO3, reference compound], the “effect on methanogenesis (%)” value ([1]; comparative example, 0.5% DM, average of two experiments) was 2% and the “effect on methanogenesis (%)” value ([1]; comparative example, 2% DM, average of two experiments) was 23%.

`CCC(=O)OCCCO[N+](=O)[O-]` [Compound 7, 3-Nitrooxy-propyl propionate] was tested, and the inhibition at 0.005 % ([1]; 8 h) was 6%, the inhibition at 0.01 % ([1]; 8 h) was 21% and the inhibition at 0.05 % ([1]; 8 h) was 100%. The inhibition at 0.1 % ([1]; 8 h) was 100%.

`COCCCO` [reference compound] was tested, and the inhibition at 0.1 % [1, 7] was 8%.

`CCOC(=O)CCO` [reference compound] was tested, and the inhibition at 0.1 % [1, 7] was 6%.

Compound `O=C(OCCCO[N+](=O)[O-])c1ccccc1` [Compound 11, 3-Nitrooxy-propyl benzoate] has an inhibition at 0.01 % ([1]; 8 h) of 11%, an inhibition at 0.1 % ([1]; 8 h) of 99% and an inhibition at 1 % ([1]; 8 h) of 99%.

`O=[N+]([O-])OCCCO` [Compound 1, 3-Nitrooxypropanol] was tested, and the Total protozoa (protozoa (18S rRNA); in vivo) was 2.51 * 10^10 copy gene numbers/g fresh matter, the “Total protozoa log 10” value (protozoa (18S rRNA); in vivo) was 10.2 log copy gene numbers/g fresh matter and the “Total protozoa ΔCt (relative abundance in relation to total bacteria)” value (protozoa (18S rRNA); in vivo) was 1.55. The Total bacteria ([2]; in vivo) was 9.74 * 10^10 copy gene numbers/g fresh matter, the “Total bacteria log 10” value ([2]; in vivo) was 11.0 log copy gene numbers/g fresh matter and the Archaea ([3]; in vivo) was 2.86 * 10^8 copy gene numbers/g fresh matter. For the same compound, the “Archaea log 10” value ([3]; in vivo) was 8.34 log copy gene numbers/g fresh matter, the “Archaea ΔCt (relative abundance in relation to total bacteria)” value ([3]; in vivo) was 0.020 and the “CH4, L/d” value [4] was 555 L/day and 536 L/day. For the same compound, the “CH4, L/kg DMI” value [4] was 29.9 L/kg DMI and 29.2 L/kg DMI, the “CH4, g/d” value [4] was 398 g/day and 384 g/day and the Acetate ([5]; in vivo) was 64.5^a mol/100 mol. The Butirate ([5]; in vivo) was 2.11 mol/100 mol, the “C2/C3 (acetate to propionate ratio)” value ([5]; in vivo) was 3.89^a and the Propionate ([5]; in vivo) was 17.5^b mol/100 mol. The “Total (volatile fatty acids)” value ([5]; in vivo) was 57.1, the Valerate ([5]; in vivo) was 1.82 mol/100 mol and the iso-valerate ([5]; in vivo) was 1.82 mol/100 mol. For the same compound, the “CH4 l, day” value ([6]; in vivo) was 18.3 l, day and 19.7 l, day and 19.1 l, day and 20.0 l, day, the CH4 l/kg intake ([6]; in vivo) was 22.5 and 19.6 and 25.6 and 23.1 and the “reduction of methane emissions (liters per kg of fresh matter intake) against the control” value ([6]; in vivo) was 23%. For the same compound, the inhibition at 0.005 % ([1]; 8 h) was 20%, the inhibition at 0.01 % ([1]; 8 h) was 79% and the inhibition at 0.05 % ([1]; 8 h) was 100%. For the same compound, the inhibition at 0.1 % ([1]; 8 h) was 100%, the inhibition at 0.5 % ([1]; 8 h) was 100% and the inhibition at 2 % ([1]; 8 h) was 100%.

In the case of `CCOC(=O)CCO[N+](=O)[O-]` [Additive 1, ethyl-3-nitrooxypropionate, reference compound], the “Total protozoa ΔCt (relative abundance in relation to total bacteria)” value (protozoa (18S rRNA); [8]) is reported as 1.58, the Total protozoa (protozoa (18S rRNA); [9]) is reported as 1.87 * 10^10 copy gene numbers/g fresh matter and the “Total protozoa log 10” value (protozoa (18S rRNA); [9]) is reported as 10.2 log copy gene numbers/g fresh matter. For the same compound, the Total bacteria [2, 10] was 9.08 * 10^10 copy gene numbers/g fresh matter, the “Total bacteria log 10” value [2, 10] was 10.9 log copy gene numbers/g fresh matter and the “Archaea ΔCt (relative abundance in relation to total bacteria)” value [3, 8] was 0.022. The Archaea [3, 11] was 2.86 * 10^8 copy gene numbers/g fresh matter, the “Archaea log 10” value [3, 11] was 8.45 log copy gene numbers/g fresh matter and the Acetate [5, 12] was 67.5^b mol/100 mol. The Butirate [5, 12] was 2.05 mol/100 mol, the “C2/C3 (acetate to propionate ratio)” value [5, 12] was 4.09^a and the Propionate [5, 12] was 16.6^a mol/100 mol. For the same compound, the “Total (volatile fatty acids)” value [5, 12] was 58.2, the Valerate [5, 12] was 1.94 mol/100 mol and the iso-butirate [5, 12] was 10.1 mol/100 mol. The iso-valerate [5, 12] was 1.79 mol/100 mol, the “CH4 l, day” value [6, 13] was 21.9 l, day and the CH4 l/kg intake [6, 13] was 25.6 l/kg intake. For the same compound, the “CH4 l, day” value [6, 14] was 20.9 l, day, the CH4 l/kg intake [6, 14] was 21.7 l/kg intake and the “CH4 l, day” value [6, 15] was 21.8 l, day. For the same compound, the CH4 l/kg intake [6, 15] was 23.2 l/kg intake, the “CH4 l, day” value [6, 16] was 21.5 l, day and the CH4 l/kg intake [6, 16] was 22.6 l/kg intake. The “reduction of methane emissions (liters per kg of fresh matter intake) against the control” value ([6]; sheep, 100 mg per animal and day, day 14) was 14%.

In the case of `O=C(NCCO[N+](=O)[O-])c1cccnc1` [Compound 16, N-[2-(Nitrooxy)ethyl]-3-pyridinecarboxamide], the inhibition at 1 % ([1]; 1% DM, reduction in methane vs control, 8 hours at 39° C., average of two experiments) is reported as 100%.

From patent US9266814B2, “Use of nitrooxy organic molecules in feed for reducing methane emission in ruminants, and/or to improve ruminant performance” (DSM IP ASSETS B.V., priority 2010, dated 2016)
